The target of this assay is T1, abc isoform of human TMEM16A channel expressed in CHO cells (Homo sapiens, UniProt Q5XXA6, DEL476-501).
T1 construct: expressed in transfected cells; host or cells: CHO cells, doxycycline-inducible expression under Blasticidin/Zeocin selection
T1 sequence (Q5XXA6 with tags, fused parts or gaps isoform Q5XXA6-5 DEL539-564): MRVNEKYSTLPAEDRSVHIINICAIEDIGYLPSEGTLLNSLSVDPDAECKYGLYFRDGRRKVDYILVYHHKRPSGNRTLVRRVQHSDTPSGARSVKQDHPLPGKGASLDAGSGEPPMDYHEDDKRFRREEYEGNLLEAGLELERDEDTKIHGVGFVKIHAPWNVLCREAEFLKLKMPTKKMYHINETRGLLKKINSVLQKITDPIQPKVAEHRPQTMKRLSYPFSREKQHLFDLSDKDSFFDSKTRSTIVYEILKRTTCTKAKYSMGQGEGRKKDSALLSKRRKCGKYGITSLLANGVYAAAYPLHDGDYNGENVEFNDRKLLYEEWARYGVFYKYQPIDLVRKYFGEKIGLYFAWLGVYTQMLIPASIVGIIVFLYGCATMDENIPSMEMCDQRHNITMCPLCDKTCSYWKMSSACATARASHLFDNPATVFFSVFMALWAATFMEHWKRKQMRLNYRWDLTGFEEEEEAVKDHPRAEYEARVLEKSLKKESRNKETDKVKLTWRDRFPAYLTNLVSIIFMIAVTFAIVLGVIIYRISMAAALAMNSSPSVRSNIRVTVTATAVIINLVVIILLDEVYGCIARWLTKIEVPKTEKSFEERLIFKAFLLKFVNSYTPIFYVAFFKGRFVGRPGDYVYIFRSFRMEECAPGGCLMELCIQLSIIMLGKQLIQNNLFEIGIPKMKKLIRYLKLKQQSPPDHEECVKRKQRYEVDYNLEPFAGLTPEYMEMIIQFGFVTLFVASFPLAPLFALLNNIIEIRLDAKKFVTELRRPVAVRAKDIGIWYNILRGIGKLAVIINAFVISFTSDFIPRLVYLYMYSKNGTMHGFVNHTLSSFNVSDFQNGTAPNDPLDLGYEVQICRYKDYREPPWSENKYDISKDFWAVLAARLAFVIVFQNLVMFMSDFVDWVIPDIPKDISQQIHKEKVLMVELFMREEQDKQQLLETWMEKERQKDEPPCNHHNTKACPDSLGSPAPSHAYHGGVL
The assay is described as follows: Automated patch clamping (QPatch) assay to measure TMEM16A activity in whole-cell. The class given is cell-based. The settings on record: for EC50: CHO cells expressing human TMEM16A (abc), whole-cell automated patch clamp, Hill fit, read-out: TMEM16A QPATCH assay EC50 V3 EC50; for Emax: CHO, maximum current at highest dose relative to reference potentiator at maximal concentration (upper limit) and vehicle (lower limit), read-out: TMEM16A QPATCH assay EC50 V3 Assay Window (% TMEM16A max activation). Put shortly:
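CHO cells with doxycycline-induced (1 μg/mL, 18-24 h) human TMEM16A abc isoform; QPatch whole-cell recording, hold −70 mV, step +70 mV 1500 ms, then −90 to +70 mV ramp. Compounds in 0.3% DMSO; EC50 by Hill fit; % max activation relative to vehicle baseline and reference potentiator maximum.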
Background: The patch-clamp technique gives a direct electrical read-out from membranes.

Broadly, the EC50 is the concentration giving half of the maximal effect.

Where a name gives a salt, the structure may show the parent alone.

For `CCC(CC)NC(=O)c1cnc(-c2cccc(-c3cc(C(=O)N[C@H](CCSC)C(=O)OC)n[nH]3)c2)o1` [Example 3.46, (R)-Methyl 4-(Methylthio)-2-(5-(3-(5-(Pentan-3-Ylcarbamoyl)Oxazol-2-yl)Phenyl)-1H-Pyrazole-3-Carboxamido)Butanoate], the 50% effective concentration (EC50) amounted to 800 nM and the Emax amounted to 80%.

Consider `CCC(CC)NC(=O)c1cnc(-c2cccc(-c3cc(C(=O)N4CCC(C)(OC)CC4)n[nH]3)c2)o1` [Example 3.47, 2-(3-(3-(4-Methoxy-4-Methylpiperidine-1-Carbonyl)-1H-Pyrazol-5-yl)Phenyl)-N-(Pentan-3-Yl)Oxazole-5-Carboxamide], for which the EC50 was determined as 940 nM and the Emax amounted to 77%.

With `CCC(CC)NC(=O)c1cnc(-c2cccc(-c3cc(C(=O)NC4CCCC4)n[nH]3)c2)o1` [Example 3.48, 2-(3-(3-(Cyclopentylcarbamoyl)-1 H-Pyrazol-5-Yl)Phenyl)-N-(Pentan-3-yl)Oxazole-5-Carboxamide], the EC50 amounted to 120 nM and the Emax was 74%.

Turning to `CCC(CC)NC(=O)c1cnc(-c2cccc(-c3cc(C(=O)N[C@@H](C)C4CCCCC4)n[nH]3)c2)o1` [Example 3.49, (S)-2-(3-(3-((1-Cyclohexylethyl)Carbamoyl)-1H-Pyrazol-5-Yl)Phenyl)-N-(Pentan-3-Yl)Oxazole-5-Carboxamide], the EC50 stood at 170 nM and the Emax turned out to be 72%.

`CCC(CC)NC(=O)c1cnc(-c2cccc(-c3cc(C(=O)N[C@@H](Cc4ccccc4)C(=O)OC)n[nH]3)c2)o1` [Example 3.50, (S)-Methyl 2-(5-(3-(5-(Pentan-3-Ylcarbamoyl)Oxazol-2-Yl)Phenyl)-1H-Pyrazole-3-Carboxamido)-3-Phenylpropanoate]: the EC50 worked out at 350 nM and the Emax is 70%.

Turning to `CCC(CC)NC(=O)c1cnc(-c2cccc(-c3cc(C(=O)N[C@H](C)c4ccccc4)n[nH]3)c2)o1` [Example 3.51, (R)-N-(Pentan-3-Yl)-2-(3-(3-((1-Phenylethyl)Carbamoyl)-1H-Pyrazol-5-Yl)Phenyl)Oxazole-5-Carboxamide], the half-maximal effective concentration (EC50) was 110 nM and the Emax worked out at 68%.

As to `CCOC(=O)[C@@H](NC(=O)c1cc(-c2cccc(-c3ncc(C(=O)NC(CC)CC)o3)c2)[nH]n1)C(C)C` [Example 3.52, (S)-Ethyl 3-Methyl-2-(5-(3-(5-(Pentan-3-Ylcarbamoyl)Oxazol-2-Yl)Phenyl)-1 H-Pyrazole-3-Carboxamido)Butanoate], the EC50 was determined as 30 nM and the Emax is 95%.

Consider `CCC(CC)NC(=O)c1cnc(-c2cccc(-c3cc(C(=O)N[C@H](CC)[C@H]4CC[C@@H](C)O4)n[nH]3)c2)o1` [Example 3.53, 2-(3-(3-(((R)-1-((2R,5R)-5-Methyltetrahydrofuran-2-Yl)Propyl)Carbamoyl)-1 H-Pyrazol-5-Yl)Phenyl)-N-(Pentan-3-Yl)Oxazole-5-Carboxamide], for which the half-maximal effective concentration (EC50) was found to be 720 nM and the Emax was 109%.

`CCC(CC)NC(=O)c1cnc(-c2cccc(-c3cc(C(=O)NC(C)(C)c4ccccc4)n[nH]3)c2)o1` [Example 3.54, N-(Pentan-3-Yl)-2-(3-(3-((2-Phenylpropan-2-Yl)Carbamoyl)-1H-Pyrazol-5-Yl)Phenyl)Oxazole-5-Carboxamide]: the half-maximal effective concentration (EC50) turned out to be 60 nM and the Emax turned out to be 109%.

`CCOC(=O)[C@@H](NC(=O)c1cnc(-c2cccc(-c3cc(C(=O)NC(C)C(F)(F)F)[nH]n3)c2)o1)C(C)C` (stereo partly drawn) [Example 3.55, (2S)-Ethyl 3-Methyl-2-(2-(3-(5-((1,1,1-Trifluoropropan-2-Yl)Carbamoyl)-1H-Pyrazol-3-Yl)Phenyl)Oxazole-5-Carboxamido)Butanoate]: the 50% effective concentration (EC50) is 20 nM and the Emax was 69%.

In the case of `CCC(CC)NC(=O)c1cnc(-c2cccc(-c3cc(C(=O)N[C@H](C)C4CC4)[nH]n3)c2)o1` [Example 3.56, (R)-2-(3-(5-((1-Cyclopropylethyl)Carbamoyl)-1H-Pyrazol-3-Yl)Phenyl)-N-(Pentan-3-Yl)Oxazole-5-Carboxamide], the half-maximal effective concentration (EC50) came out at 90 nM and the Emax was determined as 78%.

For the compound `CCC(CC)NC(=O)c1cnc(-c2cccc(-c3cc(C(=O)N[C@@H](CC(C)C)C(=O)NCC(=O)OC(C)(C)C)n[nH]3)c2)o1` [Example 3.57, (S)-Tert-Butyl 2-(4-Methyl-2-(5-(3-(5-(Pentan-3-Ylcarbamoyl)Oxazol-2-Yl)Phenyl)-1H-Pyrazole-3-Carboxamido)Pentanamido)Acetate], the EC50 worked out at 650 nM and the Emax stood at 111%.

`COC(=O)[C@H](CC(C)C)NC(=O)c1cc(-c2cccc(-c3ncc(C(=O)N[C@@H](CC(C)C)C(=O)OC)o3)c2)[nH]n1` [Example 3.58, (S)-Methyl 2-(2-(3-(3-(((S)-1-Methoxy-4-Methyl-1-Oxopentan-2-Yl)Carbamoyl)-1H-Pyrazol-5-Yl)Phenyl)Oxazole-5-Carboxamido)-4-Methylpentanoate]: the half-maximal effective concentration (EC50) came out at 270 nM and the Emax amounted to 77%.

Regarding `CCOC(=O)[C@H](NC(=O)c1cc(-c2cccc(-c3ncc(C(=O)NC(CC)CC)o3)c2)[nH]n1)c1ccccc1` [Example 3.59, (R)-Ethyl 2-(5-(3-(5-(Pentan-3-Ylcarbamoyl)Oxazol-2-Yl)Phenyl)-1H-Pyrazole-3-Carboxamido)-2-Phenylacetate Trifluoroacetate], the concentration for a half-maximal effect (EC50) worked out at 60 nM and the Emax was 106%.

With `CCOC(=O)[C@H](CC(C)C)NC(=O)c1cc(-c2cccc(-c3ncc(C(=O)NC(CC)CC)o3)c2)[nH]n1` [Example 3.60, (S)-Ethyl 4-Methyl-2-(5-(3-(5-(Pentan-3-Ylcarbamoyl)Oxazol-2-Yl)Phenyl)-1H-Pyrazole-3-Carboxamido)Pentanoate Trifluoroacetate], the EC50 came out at 160 nM and the Emax was determined as 150%.

For `CCC(CC)NC(=O)c1cnc(-c2cccc(-c3cc(C(=O)N[C@@H](COC(C)(C)C)C(=O)OC(C)(C)C)n[nH]3)c2)o1` [Example 3.61, (S)-Tert-Butyl 3-(Tert-Butoxy)-2-(5-(3-(5-(Pentan-3-Ylcarbamoyl)Oxazol-2-Yl)Phenyl)-1 H-Pyrazole-3-Carboxamido)Propanoate Trifluoroacetate], the EC50 came to 130 nM and the Emax was 123%.

As to `CCC(CC)NC(=O)c1cnc(-c2cccc(-c3cc(C(=O)N4CCC(C(=O)OC(C)(C)C)C4)n[nH]3)c2)o1` (stereo not drawn) [Example 3.62, Tert-Butyl 1-(5-(3-(5-(Pentan-3-Ylcarbamoyl)Oxazol-2-Yl)Phenyl)-1H-Pyrazole-3-Carbonyl)Pyrrolidine-3-Carboxylate Trifluoroacetate], the half-maximal effective concentration (EC50) is 960 nM and the Emax came out at 70%.

On to `CCOC(=O)[C@H](C)NC(=O)c1cc(-c2cccc(-c3ncc(C(=O)NC(CC)CC)o3)c2)[nH]n1` [Example 3.63, (S)-Ethyl 2-(5-(3-(5-(Pentan-3-Ylcarbamoyl)Oxazol-2-Yl)Phenyl)-1H-Pyrazole-3-Carboxamido)Propanoate Trifluoroacetate], for which the EC50 is 860 nM and the Emax turned out to be 72%.

`CCC(CC)NC(=O)c1cnc(-c2cccc(-c3cc(C(=O)N[C@@H](C)C(=O)OCc4ccccc4)n[nH]3)c2)o1` [Example 3.64, (S)-Benzyl 2-(5-(3-(5-(Pentan-3-Ylcarbamoyl)Oxazol-2-Yl)Phenyl)-1H-Pyrazole-3-Carboxamido)Propanoate Trifluoroacetate]: the EC50 was determined as 150 nM and the Emax worked out at 72%.

On to `CCC(CC)NC(=O)c1cnc(-c2cccc(-c3cc(C(=O)N[C@@H](C(=O)OC)c4ccccc4)n[nH]3)c2)o1` [Example 3.65, (R)-Methyl 2-(5-(3-(5-(Pentan-3-Ylcarbamoyl)Oxazol-2-Yl)Phenyl)-1H-Pyrazole-3-Carboxamido)-2-Phenylacetate Trifluoroacetate], for which the EC50 was 780 nM and the Emax stood at 28%.

Turning to `CCOC(=O)[C@H](Cc1ccccc1)NC(=O)c1cc(-c2cccc(-c3ncc(C(=O)NC(CC)CC)o3)c2)[nH]n1` [Example 3.66, (S)-Ethyl 2-(5-(3-(5-(Pentan-3-Ylcarbamoylyl-Carbamoyl)Oxazol-2-Yl)Phenyl)-1H-Pyrazole-3-Carboxamido)-3-Phenylpropanoate Trifluoroacetate], the EC50 worked out at 140 nM and the Emax came out at 80%.

These data come from US20220306617A1, “SUBSTITUTED 1,3-PHENYL HETEROARYL DERIVATIVES AND THEIR USE IN THE TREATMENT OF DISEASE” (NOVARTIS AG, priority 2019, published 2022).
